Experimental data as given in PubChem BioAssay AID1918934 (Molecular Pharmacology Branch, DTP, NCI, 2023).
Several values for one entry are separate records, joined by “and”; a condition that tells them apart may be missing. Identical values can stand only once. One block for each compound: values may come before it.

Tested on: 292921-168-R-J2-PDC complex spheroid viability
Assay: Anticancer human tumor 292921-168-R-J2-PDC patient-derived pancreatic carcinoma cell line growth inhibition
Conditions: for viability, T/C: stronger effect = lower value
Summary of the method: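 Complex spheroids of tumor cells with HUVEC and human MSCs, exposed to iadademstat combined with other agents. Each agent tested in half-log steps from near clinical Cmax (else 10 microM top), DMSO ≤0.25%.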

[1] = curve of first compound, second compound 0.1 µM
[2] = curve of first compound, second compound 0.316 µM
[3] = curve of first compound, second compound 1 µM
[4] = curve of first compound, second compound 3.16 µM
[5] = curve of first compound, second compound 10 µM
[6] = second compound 0.1 µM, first compound 0.00949 µM
[7] = second compound 0.1 µM, first compound 0.03 µM
[8] = second compound 0.1 µM, first compound 0.0949 µM
[9] = second compound 0.1 µM, first compound 0.3 µM
[10] = second compound 0.1 µM, first compound 0.949 µM
[11] = second compound 0.1 µM, first compound 3 µM
[12] = second compound 0.316 µM, first compound 0.00949 µM
[13] = second compound 0.316 µM, first compound 0.03 µM
[14] = second compound 0.316 µM, first compound 0.0949 µM
[15] = second compound 0.316 µM, first compound 0.3 µM
[16] = second compound 0.316 µM, first compound 0.949 µM
[17] = second compound 0.316 µM, first compound 3 µM
[18] = second compound 1 µM, first compound 0.00949 µM
[19] = second compound 1 µM, first compound 0.03 µM
[20] = second compound 1 µM, first compound 0.0949 µM
[21] = second compound 1 µM, first compound 0.3 µM
[22] = second compound 1 µM, first compound 0.949 µM
[23] = second compound 1 µM, first compound 3 µM
[24] = second compound 3.16 µM, first compound 0.00949 µM
[25] = second compound 3.16 µM, first compound 0.03 µM
[26] = second compound 3.16 µM, first compound 0.0949 µM
[27] = second compound 3.16 µM, first compound 0.3 µM
[28] = second compound 3.16 µM, first compound 0.949 µM
[29] = second compound 3.16 µM, first compound 3 µM
[30] = second compound 10 µM, first compound 0.00949 µM
[31] = second compound 10 µM, first compound 0.03 µM
[32] = second compound 10 µM, first compound 0.0949 µM
[33] = second compound 10 µM, first compound 0.3 µM
[34] = second compound 10 µM, first compound 0.949 µM
[35] = second compound 10 µM, first compound 3 µM
[36] = second compound 0.1 µM, first compound 0.000949 µM
[37] = second compound 0.1 µM, first compound 0.003 µM
[38] = second compound 0.316 µM, first compound 0.000949 µM
[39] = second compound 0.316 µM, first compound 0.003 µM
[40] = second compound 1 µM, first compound 0.000949 µM
[41] = second compound 1 µM, first compound 0.003 µM
[42] = second compound 3.16 µM, first compound 0.000949 µM
[43] = second compound 3.16 µM, first compound 0.003 µM
[44] = second compound 10 µM, first compound 0.000949 µM
[45] = second compound 10 µM, first compound 0.003 µM
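Note: seven day compound exposure before luminescent viability read.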
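Throughout, for viability, T/C: 100% = DMSO vehicle control wells.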

Structure (SMILES): COc1cc(C2c3cc4c(cc3C(OC3OC5COC(C)OC5C(O)C3O)C3COC(=O)C23)OCO4)cc(OC)c1O (stereo unspecified) + NC1CC1c1ccc(-c2cccc(O)c2)cc1
IC50 [1]: 42.7 nM
IC50 [2]: 21.3 nM
IC50 [3]: 21.4 nM
IC50 [4]: 13.7 nM
IC50 [5]: < 9.49 nM
viability, T/C [6]: 84.3%
viability, T/C [7]: 58.9%
viability, T/C [8]: 30.1%
viability, T/C [9]: 19.4%
viability, T/C [10]: 7.22%
viability, T/C [11]: 4.45%
viability, T/C [12]: 64.8%
viability, T/C [13]: 44.4%
viability, T/C [14]: 25.7%
viability, T/C [15]: 18.6%
viability, T/C [16]: 8.04%
viability, T/C [17]: 5.02%
viability, T/C [18]: 64.7%
viability, T/C [19]: 43.3%
viability, T/C [20]: 27.4%
viability, T/C [21]: 16.4%
viability, T/C [22]: 5.52%
viability, T/C [23]: 4.94%
viability, T/C [24]: 54.8%
viability, T/C [25]: 39.9%
viability, T/C [26]: 24.3%
viability, T/C [27]: 15.2%
viability, T/C [28]: 7.27%
viability, T/C [29]: 3.74%
viability, T/C [30]: 44.7%
viability, T/C [31]: 27.4%
viability, T/C [32]: 23%
viability, T/C [33]: 17.1%
viability, T/C [34]: 6.98%
viability, T/C [35]: 5.53%

IC50 (curve of compound): < 3.16 nM
Structure (SMILES): COc1cc(Nc2ncc3c(n2)-c2ccc(Cl)cc2C(c2c(F)cccc2OC)=NC3)ccc1C(=O)O
viability, T/C (compound 0.00316 µM): 33% and 38.1%
viability, T/C (compound 0.01 µM): 40.7% and 42.1%
viability, T/C (compound 0.0316 µM): 36% and 39.1%
viability, T/C (compound 0.1 µM): 30.2% and 37.9%
viability, T/C (compound 0.316 µM): 27.7% and 29.6%
viability, T/C (compound 1 µM): 16.1% and 17.5%

IC50 (curve of compound): < 9.49 nM and 12.8 nM
Structure (SMILES): O=C(C=Cc1cccc(S(=O)(=O)Nc2ccccc2)c1)NO
viability, T/C (compound 0.00949 µM): 47.6% and 52.8%
viability, T/C (compound 0.03 µM): 41% and 44.1%
viability, T/C (compound 0.0949 µM): 28.8% and 32.3%
viability, T/C (compound 0.3 µM): 18.1% and 25.8%
viability, T/C (compound 0.949 µM): 0.52% and 1.26%
viability, T/C (compound 3 µM): 0.15%

Structure (SMILES): Cn1ncnc1C1c2n[nH]c(=O)c3cc(F)cc(c23)NC1c1ccc(F)cc1 (stereo unspecified) + NC1CC1c1ccc(-c2cccc(O)c2)cc1
IC50 [1]: > 100 nM
IC50 [2]: > 100 nM
IC50 [3]: > 100 nM
IC50 [4]: > 100 nM
IC50 [5]: 6.46 nM
viability, T/C (second compound 0.1 µM, first compound 0.000316 µM): 87.2%
viability, T/C (second compound 0.1 µM, first compound 0.001 µM): 83.4%
viability, T/C (second compound 0.1 µM, first compound 0.00316 µM): 76.7%
viability, T/C (second compound 0.1 µM, first compound 0.01 µM): 71.2%
viability, T/C (second compound 0.1 µM, first compound 0.0316 µM): 67.3%
viability, T/C (second compound 0.1 µM, first compound 0.1 µM): 65.5%
viability, T/C (second compound 0.316 µM, first compound 0.000316 µM): 71%
viability, T/C (second compound 0.316 µM, first compound 0.001 µM): 75%
viability, T/C (second compound 0.316 µM, first compound 0.00316 µM): 67%
viability, T/C (second compound 0.316 µM, first compound 0.01 µM): 63.4%
viability, T/C (second compound 0.316 µM, first compound 0.0316 µM): 57.8%
viability, T/C (second compound 0.316 µM, first compound 0.1 µM): 62.2%
viability, T/C (second compound 1 µM, first compound 0.000316 µM): 72.2%
viability, T/C (second compound 1 µM, first compound 0.001 µM): 62.8%
viability, T/C (second compound 1 µM, first compound 0.00316 µM): 67.3%
viability, T/C (second compound 1 µM, first compound 0.01 µM): 58.1%
viability, T/C (second compound 1 µM, first compound 0.0316 µM): 64%
viability, T/C (second compound 1 µM, first compound 0.1 µM): 60.3%
viability, T/C (second compound 3.16 µM, first compound 0.000316 µM): 69.2%
viability, T/C (second compound 3.16 µM, first compound 0.001 µM): 64.2%
viability, T/C (second compound 3.16 µM, first compound 0.00316 µM): 59.7%
viability, T/C (second compound 3.16 µM, first compound 0.01 µM): 54.5%
viability, T/C (second compound 3.16 µM, first compound 0.0316 µM): 50.5%
viability, T/C (second compound 3.16 µM, first compound 0.1 µM): 52.5%
viability, T/C (second compound 10 µM, first compound 0.000316 µM): 51.9%
viability, T/C (second compound 10 µM, first compound 0.001 µM): 58%
viability, T/C (second compound 10 µM, first compound 0.00316 µM): 51.9%
viability, T/C (second compound 10 µM, first compound 0.01 µM): 48.3%
viability, T/C (second compound 10 µM, first compound 0.0316 µM): 43.6%
viability, T/C (second compound 10 µM, first compound 0.1 µM): 43.6%

Structure (SMILES): Nc1ccn(C2OC(CO)C(O)C2(F)F)c(=O)n1 (stereo unspecified) + NC1CCC(NC2CC2c2ccccc2)CC1
IC50 [1]: < 0.949 nM
IC50 [2]: < 0.949 nM
IC50 [3]: < 0.949 nM
IC50 [4]: < 0.949 nM
IC50 [5]: < 0.949 nM
viability, T/C [36]: 27.8%
viability, T/C [37]: 9.83%
viability, T/C [6]: 8.07%
viability, T/C [7]: 6.88%
viability, T/C [8]: 7.25%
viability, T/C [9]: 6.85%
viability, T/C [38]: 28.2%
viability, T/C [39]: 11.6%
viability, T/C [12]: 6.99%
viability, T/C [13]: 6.4%
viability, T/C [14]: 8.06%
viability, T/C [15]: 7.6%
viability, T/C [40]: 21.8%
viability, T/C [41]: 10.7%
viability, T/C [18]: 8.29%
viability, T/C [19]: 7.78%
viability, T/C [20]: 8.71%
viability, T/C [21]: 7.52%
viability, T/C [42]: 22.2%
viability, T/C [43]: 10.4%
viability, T/C [24]: 8.35%
viability, T/C [25]: 7.52%
viability, T/C [26]: 8.12%
viability, T/C [27]: 8.1%
viability, T/C [44]: 23.4%
viability, T/C [45]: 10.2%
viability, T/C [30]: 9%
viability, T/C [31]: 9.62%
viability, T/C [32]: 8.3%
viability, T/C [33]: 9.08%

Structure (SMILES): Nc1ccccc1NC(=O)c1ccc(CNC(=O)OCc2cccnc2)cc1 + NC1CCC(NC2CC2c2ccccc2)CC1
IC50 [1]: 28.7 nM
IC50 [2]: 15.1 nM
IC50 [3]: < 9.49 nM
IC50 [4]: 13.1 nM
IC50 [5]: < 9.49 nM
viability, T/C [6]: 61.3%
viability, T/C [7]: 48.3%
viability, T/C [8]: 34.6%
viability, T/C [9]: 20.5%
viability, T/C [10]: 3.31%
viability, T/C [11]: 0.22%
viability, T/C [12]: 53.1%
viability, T/C [13]: 45.2%
viability, T/C [14]: 34.6%
viability, T/C [15]: 18.8%
viability, T/C [16]: 3.86%
viability, T/C [17]: 0.24%
viability, T/C [18]: 50.8%
viability, T/C [19]: 39.9%
viability, T/C [20]: 33.4%
viability, T/C [21]: 20.6%
viability, T/C [22]: 3.16%
viability, T/C [23]: 0.22%
viability, T/C [24]: 52.9%
viability, T/C [25]: 43%
viability, T/C [26]: 27.2%
viability, T/C [27]: 16.3%
viability, T/C [28]: 2.26%
viability, T/C [29]: 0.38%
viability, T/C [30]: 42.5%
viability, T/C [31]: 39.5%
viability, T/C [32]: 26.8%
viability, T/C [33]: 14.2%
viability, T/C [34]: 0.79%
viability, T/C [35]: 0.3%

IC50 (curve of compound): < 0.949 nM
Structure (SMILES): Nc1ccn(C2OC(CO)C(O)C2(F)F)c(=O)n1 (stereo unspecified)
viability, T/C (compound 0.000949 µM): 39.2% and 33.5%
viability, T/C (compound 0.003 µM): 12% and 10.8%
viability, T/C (compound 0.00949 µM): 6.12% and 5.67%
viability, T/C (compound 0.03 µM): 5.81% and 5.6%
viability, T/C (compound 0.0949 µM): 8.04% and 6.06%
viability, T/C (compound 0.3 µM): 6.84% and 5.56%

Structure (SMILES): Nc1ncn(C2CC(O)C(CO)S2)c(=O)n1 (stereo unspecified) + NC1CCC(NC2CC2c2ccccc2)CC1
IC50 [1]: 43.8 nM
IC50 [2]: 40 nM
IC50 [3]: 37.2 nM
IC50 [4]: 34.6 nM
IC50 [5]: 30.7 nM
viability, T/C [36]: 68.9%
viability, T/C [37]: 62%
viability, T/C [6]: 63.2%
viability, T/C [7]: 57.1%
viability, T/C [8]: 36.8%
viability, T/C [9]: 10.9%
viability, T/C [38]: 66.8%
viability, T/C [39]: 64.3%
viability, T/C [12]: 59.1%
viability, T/C [13]: 57.2%
viability, T/C [14]: 33.2%
viability, T/C [15]: 11.2%
viability, T/C [40]: 52.2%
viability, T/C [41]: 62.7%
viability, T/C [18]: 55.2%
viability, T/C [19]: 53.9%
viability, T/C [20]: 33.6%
viability, T/C [21]: 10.3%
viability, T/C [42]: 55.1%
viability, T/C [43]: 61.9%
viability, T/C [24]: 58.6%
viability, T/C [25]: 52.9%
viability, T/C [26]: 28%
viability, T/C [27]: 11%
viability, T/C [44]: 56.3%
viability, T/C [45]: 61.2%
viability, T/C [30]: 59.6%
viability, T/C [31]: 49.6%
viability, T/C [32]: 28.2%
viability, T/C [33]: 11.5%
